Earlier results as cited in patent publication US12453819B2, “Injector” (Antares Pharma, Inc., priority 2018, dated 2025).
Structures can show the parent of a compound that is named as a salt.

Row | Structure (SMILES) | solubility in water: parts of water dissolving one part (as described in USP (soluble)) | solubility in alcohol (descriptive term) | solubility in chloroform (descriptive term) | solubility in ether (descriptive term) | solubility in water (descriptive term) | log P
1 | C=CCN1CC[C@]23c4c5ccc(O)c4O[C@H]2C(=O)CC[C@@]3(O)[C@H]1C5 [Naloxone hydrochloride] | 10-30 parts of water | slightly soluble | practically insoluble | practically insoluble | soluble | –
2 | C=CCN1CC[C@]23c4c5ccc(O)c4O[C@H]2C(=O)CC[C@@]3(O)[C@H]1C5 [Naloxone, 17-allyl-4,5α-epoxy, 3-14-dihydroxymorphine-6-one] | – | – | – | – | – | 1.92
